These are literature values, as cited in PubChem BioAssay AID1259409 (Chemical Carcinogenesis Research Information System (CCRIS), 2018).

The data set has as its system rodent chemically induced tumor inhibition, incidence and multiplicity. Put plainly: CCRIS tumor inhibitor studies. The conditions noted are these: Dose [Inhibitor]: 0.

Regarding `CCOC(=O)C(C)(C)Br`, the “tumour outcome (control, treated, inhibition, significance)” value (Carcinogen: N-METHYL-N'-NITRO-N-NITROSOGUANIDINE, 70-25-7, 42 MG/KG TWICE WITHIN 24 HR THEN 105 MG/KG 1/2 WK FOR DURATION OF STUDY BEGINNING 1 WK POST LAST CARCINOGEN DOSE (STU, Route [Inhibitor]: INTRAPERITONEAL, Species: RAT, Strain/Sex: SHR/MALE, Target Tissue: Type of Lesion: STOMACH: ADENOCARCINOMA, Dose [Carcinogen]: 25 UG/ML IN DRINKING WATER FOR 25 WK, Promoter: NONE USED) is on record as 10/19 (53%), 2/17 (12%), 77%, p<0.05 and the “tumour outcome (control, treated, inhibition, significance)” value (Carcinogen: N-METHYL-N'-NITRO-N-NITROSOGUANIDINE, 70-25-7, 42 MG/KG TWICE WITHIN 24 HR THEN 105 MG/KG 1/2 WK FOR DURATION OF STUDY BEGINNING 1 WK POST LAST CARCINOGEN DOSE (STU, Route [Inhibitor]: INTRAPERITONEAL, Species: RAT, Strain/Sex: WISTAR/MALE, Target Tissue: Type of Lesion: STOMACH: ADENOCARCINOMA, Dose [Carcinogen]: 25 UG/ML IN DRINKING WATER FOR 25 WK, Promoter: NONE USED) is listed as 2/18 (11%), 0/17 (0%), 100%, not significant.
`CC1(C)[C@@H](O[C@H]2O[C@H](C(=O)O)[C@@H](O)[C@H](O)[C@H]2O[C@@H]2O[C@H](C(=O)O)[C@@H](O)[C@H](O)[C@H]2O)CC[C@]2(C)[C@H]3C(=O)C=C4[C@@H]5C[C@@](C)(C(=O)O)CC[C@]5(C)CC[C@@]4(C)[C@]3(C)CC[C@@H]12`: the “tumour outcome (control, treated, inhibition, significance)” value runs as follows: (Carcinogen: 7,12-DIMETHYLBENZ[A]ANTHRACENE, 57-97-6, 0.05% IN DRINKING WATER BEGINNING 50 D PRIOR TO CARCINOGEN TREATMENT AND CONTINUING FOR THE DURATION OF STUDY (STUDY, Route [Inhibitor]: ORAL, Species: MOUSE, Strain/Sex: SENCAR/FEMALE, Target Tissue: Type of Lesion: SKIN: TUMOR, Dose [Carcinogen]: 40 NMOL IN 0.2 ML ACETONE ONCE, Promoter: 12-O-TETRADECANOYLPHORBOL-13-ACETATE, 16561-29-8) 100%, 100%, 0%, not significant; (Carcinogen: 7,12-DIMETHYLBENZ[A]ANTHRACENE, 57-97-6, 0.05% IN DRINKING WATER FOR 50 D PRIOR TO CARCINOGEN TREATMENT (STUDY DURATION: 23 WK), Route [Inhibitor]: ORAL, Species: MOUSE, Strain/Sex: SENCAR/FEMALE, Target Tissue: Type of Lesion: SKIN: TUMOR, Dose [Carcinogen]: 40 NMOL IN 0.2 ML ACETONE ONCE, Promoter: 12-O-TETRADECANOYLPHORBOL-13-ACETATE, 16561-29-8) 100%, 100%, 0%, not significant; (Carcinogen: DIETHYLNITROSAMINE, 55-18-5, 2 MG 3/WK FOR 32 WK BEGINNING 2 WK PRIOR TO CARCINOGEN TREATMENT (STUDY DURATION:32 WK), Route [Inhibitor]: INTRAMUSCULAR, Species: MOUSE, Strain/Sex: BALB/MALE, Target Tissue: Type of Lesion: LIVER :HEPATOCELLULAR CARCINOMA, Dose [Carcinogen]: 75 MG/KG 1/WK FOR 3 WK THEN 100 MG/KG 1/WK FOR 3 WK, Promoter: NONE USED) 7/11 (64%), 3.14 (21%), 65%, p<0.05.
As for `C[C@H]1[C@H](C)CC[C@]2(C(=O)O)CC[C@]3(C)C(=CC[C@@H]4[C@@]5(C)CC[C@H](O)C(C)(C)[C@@H]5CC[C@]43C)[C@H]12`, the “tumour outcome (control, treated, inhibition, significance)” value is, setting by setting: (Carcinogen: 7,12-DIMETHYLBENZ[A]ANTHRACENE : 57-97-6, 2 UMOL IN 200 µL ACETONE 2/WK FOR 20 WK BEGINNING 1 WK POST CARCINOGEN DOSE (STUDY DURATION: 20 WK), Route [Inhibitor]: DERMAL, Species: MOUSE, Strain/Sex: CD-1/FEMALE, Target Tissue: Type of Lesion: SKIN: TUMOR, Dose [Carcinogen]: 200 NMOL IN 200 µL ACETONE ONCE, Promoter: 12-O-TETRADECANOYLPHORBOL-13-ACETATE, 16561-29-8) 93%, 62%, 33%, not significant; (Carcinogen: 7,12-DIMETHYLBENZ[A]ANTHRACENE, 57-97-6, 0.1 UMOL IN 200 µL ACETONE 2/WK FOR 18 WK BEGINNING 1 WK POST CARCINOGEN DOSE (STUDY DURATION: 18 WK), Route [Inhibitor]: DERMAL, Species: MOUSE, Strain/Sex: CD-1/FEMALE, Target Tissue: Type of Lesion: SKIN: TUMOR, Dose [Carcinogen]: 200 NMOL IN 200 µL ACETONE ONCE, Promoter: 12-O-TETRADECANOYLPHORBOL-13-ACETATE, 16561-29-8) 87%, 87%, 0%, not significant; (Carcinogen: 7,12-DIMETHYLBENZ[A]ANTHRACENE, 57-97-6, 0.3 UMOL IN 200 µL ACETONE 2/WK FOR 18 WK BEGINNING 1 WK POST CARCINOGEN DOSE (STUDY DURATION: 18 WK), Route [Inhibitor]: DERMAL, Species: MOUSE, Strain/Sex: CD-1/FEMALE, Target Tissue: Type of Lesion: SKIN: TUMOR, Dose [Carcinogen]: 200 NMOL IN 200 µL ACETONE ONCE, Promoter: 12-O-TETRADECANOYLPHORBOL-13-ACETATE, 16561-29-8) 87%, 93%, -7%, not significant; (Carcinogen: 7,12-DIMETHYLBENZ[A]ANTHRACENE, 57-97-6, 1 UMOL IN 200 µL ACETONE 2/WK FOR 18 WK BEGINNING 1 WK POST CARCINOGEN DOSE (STUDY DURATION: 18 WK), Route [Inhibitor]: DERMAL, Species: MOUSE, Strain/Sex: CD-1/FEMALE, Target Tissue: Type of Lesion: SKIN: TUMOR, Dose [Carcinogen]: 200 NMOL IN 200 µL ACETONE ONCE, Promoter: 12-O-TETRADECANOYLPHORBOL-13-ACETATE, 16561-29-8) 87%, 77%, 11%, not significant; (Carcinogen: 7,12-DIMETHYLBENZ[A]ANTHRACENE, 57-97-6, 1 UMOL IN 200 µL ACETONE 2/WK FOR 20 WK BEGINNING 1 WK POST CARCINOGEN DOSE (STUDY DURATION: 20 WK), Route [Inhibitor]: DERMAL, Species: (30,30)/(30,30), Strain/Sex: CD-1/FEMALE, Target Tissue: Type of Lesion: SKIN: TUMOR, Dose [Carcinogen]: 200 NMOL IN 200 µL ACETONE ONCE, Promoter: 12-O-TETRADECANOYLPHORBOL-13-ACETATE, 16561-29-8) 93%, 80%, 14%, not significant; (Carcinogen: 7,12-DIMETHYLBENZ[A]ANTHRACENE, 57-97-6, 2 UMOL IN 200 µL ACETONE 2/WK FOR 18 WK BEGINNING 1 WK POST CARCINOGEN DOSE (STUDY DURATION: 18 WK), Route [Inhibitor]: DERMAL, Species: MOUSE, Strain/Sex: CD-1/FEMALE, Target Tissue: Type of Lesion: SKIN: TUMOR, Dose [Carcinogen]: 200 NMOL IN 200 µL ACETONE ONCE, Promoter: 12-O-TETRADECANOYLPHORBOL-13-ACETATE, 16561-29-8) 87%, 60%, 31%, not significant.
